Measurements as given in patent EP2951180B1, “2,6,7,8 SUBSTITUTED PURINES AS HDM2 INHIBITORS” (Merck Sharp & Dohme Corp., priority 2013, dated 2014).

Molecular target: T1, HDM2 (Homo sapiens, UniProt Q00987)
T1 construct: Thioredoxin (N); made in house; host or cells: E. coli strain BL21(DE3)Rosetta
Assay: FRET assay (HDM2 inhibition; method not described in this part)
Format: binding
Conditions: Table 1

T1 sequence (Q00987 17-125): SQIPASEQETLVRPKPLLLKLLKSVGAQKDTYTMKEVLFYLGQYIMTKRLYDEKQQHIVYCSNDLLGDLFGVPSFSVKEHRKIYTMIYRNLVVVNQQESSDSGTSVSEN

## C[C@@H](Nc1nc(C(=O)O)nc2nc(-c3cc(C(F)(F)F)ccc3F)n(Cc3ccc(C(F)(F)F)cc3)c12)C1CCC1 [Example 1.38, 6-{[(1R)-1-cyclobutylethyl]amino}-8-[2-fluoro-5-(trifluoromethyl)phenyl] - 7-[4-(trifluoromethyl)benzyl]-7H-purine-2-carboxylic acid]
  IC50: 27.5 nM

## Cc1ccc(N(C)C)cc1-c1nc2nc(C(=O)O)nc(N[C@H](C)C3CCC3)c2n1Cc1ccc(C(F)(F)F)cc1 [Example 1.39, 6-{[(1R)-1-cyclobutylethyl]amino}-8-[5-(dimethylamino)-2-methylphenyl]-7-[4-(trifluoromethyl)benzyl]-7H-purine-2-carboxylic acid]
  IC50: 58.5 nM

## CCc1ccc(F)c(-c2nc3nc(C(=O)O)nc(N[C@H](C)C4CCC4)c3n2Cc2ccc(C(F)(F)F)cc2)c1 [Example 1.40, 6-{[(1R)-1-cyclobutylethyl]amino}-8-(5-ethyl-2-fluorophenyl)-7-[4-(trifluoromethyl)benzyl]-7H-purine-2-carboxylic acid]
  IC50: 33.8 nM

## COc1ccc(C(C)C)cc1-c1nc2nc(C(=O)O)nc(N[C@H](C)C3CCC3)c2n1Cc1ccc(C(F)(F)F)cc1 [Example 1.41, 6-{[(1R)-1-cyclobutylethyl]amino}-8-[2-methoxy-5-(1-methylethyl)phenyl]-7-[4-(trifluoromethyl)benzyl]-7H-purine-2-carboxylic acid]
  IC50: 27.5 nM

## C[C@@H](Nc1nc(C(=O)O)nc2nc(-c3cc(N(C)C)ccc3O)n(Cc3ccc(C(F)(F)F)cc3)c12)C1CCC1 [Example 1.42, 6-{[(1R)-1-cyclobutylethyl]amino}-8-[5-(dimethylamino)-2-hydroxyphenyl]-7-[4-(trifluoromethyl)benzyl]-7H-purine-2-carboxylic acid]
  IC50: 77 nM

## CCOc1ccnc(-c2nc3nc(C(=O)O)nc(N[C@H](C)C4CCC4)c3n2Cc2ccc(C(F)(F)F)cc2)c1 [Example 1.43, 6-{[(1R)-1-cyclobutylethyl]amino}-8-(4-ethoxypyridin-2-yl)-7-[4-(trifluoromethyl)benzyl] - 7H-purine-2-carboxylic acid]
  IC50: 11.8 nM

## C[C@@H](Nc1nc(C(=O)O)nc2nc(-c3cc(Cl)ccn3)n(Cc3ccc(C(F)(F)F)cc3)c12)C1CCC1 [Example 1.44, 8-(4-chloropyridin-2-yl)-6-{[(1R)-1-cyclobutylethyl]amino}-7-[4-(trifluoromethyl)benzyl] - 7H-purine-2-carboxylic acid]
  IC50: 16.5 nM

## C[C@@H](Nc1nc(C(=O)O)nc2nc(-c3cc(OC4CCC4)ccn3)n(Cc3ccc(C(F)(F)F)cc3)c12)C1CCC1 [Example 1.45, 6-{[(1R)-1-cyclobutylethyl]amino}-8-[4-(cyclobutyloxy)pyridin-2-yl]-7-[4-(trifluoromethyl)benzyl]-7H-purine-2-carboxylic acid]
  IC50: 50.8 nM

## C[C@@H](Nc1nc(C(=O)O)nc2nc(-c3cc(C(F)F)ccn3)n(Cc3ccc(C(F)(F)F)cc3)c12)C1CCC1 [Example 1.46, 6-{[(1R)-1-cyclobutylethyl]amino}-8-[4-(difluoromethyl)pyridin-2-yl]-7-[4-(trifluoromethyl)benzyl]-7H-purine-2-carboxylic acid]
  IC50: 12.3 nM

## C[C@@H](Nc1nc(C(=O)O)nc2nc(-c3cc(N(C)C)ccn3)n(Cc3ccc(C(F)(F)F)cc3)c12)C1CCC1 [Example 1.47, 6-{[(1R)-1-cyclobutylethyl]amino}-8-[4-(dimethylamino)pyridin-2-yl]-7-[4-(trifluoromethyl)benzyl]-7H-purine-2-carboxylic acid]
  IC50: 16.4 nM

## Cc1ccn(-c2ccnc(-c3nc4nc(C(=O)O)nc(N[C@H](C)C5CCC5)c4n3Cc3ccc(C(F)(F)F)cc3)c2)n1 [Example 1.48, 6-{[(1R)-1-cyclobutylethyl]amino}-8-[4-(3-methyl-1H-pyrazol-1-yl)pyridin-2-yl]-7-[4-(trifluoromethyl)benzyl]-7H-purine-2-carboxylic acid]
  IC50: 2260 nM

## CC(C)c1ccnc(-c2nc3nc(C(=O)O)nc(N[C@H](C)C4CCC4)c3n2Cc2ccc(C(F)(F)F)c(F)c2)c1 [Example 1.49, 6-{[(1R)-1-cyclobutylethyl]amino}-7-[3-fluoro-4-(trifluoromethyl)benzyl] - 8-[4-(1-methylethyl)pyridin-2-yl]-7H-purine-2-carboxylic acid]
  IC50: 3.52 nM

## CC(C)c1ccnc(-c2nc3nc(C(=O)O)nc(N[C@@H](C)C4CCC4)c3n2Cc2ccc(C(F)(F)F)cc2)c1 [Example 1.50]
  IC50: 128 nM

## C[C@@H](Nc1nc(C(=O)O)nc2nc(-c3cc(C4CC4)ccn3)n(Cc3ccc(C(F)(F)F)cc3)c12)C1CCC1 [Example 1.51, 6-{[(1R)-1-cyclobutylethyl]amino}-8-(4-cyclopropylpyridin-2-yl)-7-[4-(trifluoromethyl)benzyl]-7H-purine-2-carboxylic acid]
  IC50: 8.39 nM

## CC(C)c1ccc(OC(F)(F)F)c(-c2nc3nc(C(=O)O)nc(N[C@H](C)C4CCC4)c3n2Cc2ccc(C(F)(F)F)cc2)c1 [Example 1.52, 6-{[(1R)-1-cyclobutylethyl]amino}-8-[5-(1-methylethyl)-2-(trifluoromethoxy)phenyl]-7-[4-(trifluoromethyl)benzyl] - 7H-purine-2-carboxylic acid]
  IC50: 6.25 nM

## C[C@@H](Nc1nc(C(=O)O)nc2nc(-c3cc(C(C)(C)C)ccn3)n(Cc3ccc(C(F)(F)F)cc3)c12)C1CCC1 [Example 1.53, 8-(4-tert-butylpyridin-2-yl)-6-{[(1R)-1-cyclobutylethyl]amino}-7-[4-(trifluoromethyl)benzyl]-7H-purine-2-carboxylic acid]
  IC50: 4.36 nM

## C[C@@H](Nc1nc(C(=O)O)nc2nc(-c3cc(C4CCC4)ccn3)n(Cc3ccc(C(F)(F)F)cc3)c12)C1CCC1 [Example 1.54]
  IC50: 5.61 nM

## C[C@@H](Nc1nc(C(=O)O)nc2nc(-c3cc(C4CCCC4)ccn3)n(Cc3ccc(C(F)(F)F)cc3)c12)C1CCC1 [Example 1.55, 6-{[(1R)-1-cyclobutylethyl]amino}-8-(4-cyclopentylpyridin-2-yl)-7-[4-(trifluoromethyl)benzyl]-7H-purine-2-carboxylic acid]
  IC50: 4.77 nM

## C[C@@H](Nc1nc(C(=O)O)nc2nc(-c3cc(C4CCCCC4)ccn3)n(Cc3ccc(C(F)(F)F)cc3)c12)C1CCC1 [Example 1.56, 6-{[(1R)-1-cyclobutylethyl]amino}-8-(4-cyclohexylpyridin-2-yl)-7-[4-(trifluoromethyl)benzyl]-7H-purine-2-carboxylic acid]
  IC50: 6.99 nM

## C[C@@H](Nc1nc(C(=O)O)nc2nc(-c3cc(-c4cccs4)ccn3)n(Cc3ccc(C(F)(F)F)cc3)c12)C1CCC1 [Example 1.57, 6-{[(1R)-1-cyclobutylethyl]amino}-8-(4-thiophen-2-ylpyridin-2-yl)-7-[4-(trifluoromethyl)benzyl]-7H-purine-2-carboxylic acid]
  IC50: 5.95 nM

## C[C@@H](Nc1nc(C(=O)O)nc2nc(-c3cc(OC4CCCCC4)ccn3)n(Cc3ccc(C(F)(F)F)cc3)c12)C1CCC1 [Example 1.58, 6-{[(1R)-1-cyclobutylethyl]amino}-8-[4-(cyclohexyloxy)pyridin-2-yl]-7-[4-(trifluoromethyl)benzyl]-7H-purine-2-carboxylic acid]
  IC50: 16.9 nM

## C[C@@H](Nc1nc(C(=O)O)nc2nc(-c3cc(C(F)(F)F)ccn3)n(Cc3ccc(C(F)(F)F)cc3)c12)C1CCC1 [Example 1.60, 6-{[(1R)-1-cyclobutylethyl]amino}-7-[4-(trifluoromethyl)benzyl] - 8-[4-(trifluoromethyl)pyridin-2-yl]-7H-purine-2-carboxylic acid]
  IC50: 15.2 nM

## C[C@@H](Nc1nc(C(=O)O)nc2nc(-c3cccc4c3CNC4)n(Cc3ccc(C(F)(F)F)cc3)c12)C1CCC1 [Example 1.61, 6-{[(1R)-1-cyclobutylethyl]amino}-8-(2,3-dihydro-1H-isoindol-4-yl)-7-[4-(trifluoromethyl)benzyl]-7H-purine-2-carboxylic acid]
  IC50: 51.4 nM

## C[C@@H](Nc1nc(C(=O)O)nc2nc(-c3cc4ccccc4cn3)n(Cc3ccc(C(F)(F)F)cc3)c12)C1CCC1 [Example 1.62, 6-{[(1R)-1-cyclobutylethyl]amino}-8-isoquinolin-3-yl-7-[4-(trifluoromethyl)benzyl] - 7H-purine-2-carboxylic acid]
  IC50: 45.8 nM

## C[C@@H](Nc1nc(C(=O)O)nc2nc(-c3cccc(-c4ccccc4)n3)n(Cc3ccc(C(F)(F)F)cc3)c12)C1CCC1 [Example 1.63, 6-{[(1R)-1-cyclobutylethyl]amino}-8-(6-phenylpyridin-2-yl)-7-[4-(trifluoromethyl)benzyl] - 7H-purine-2-carboxylic acid]
  IC50: 324 nM

## C[C@@H](Nc1nc(C(=O)O)nc2nc(-c3cc(C(F)F)cc(C(F)F)n3)n(Cc3ccc(C(F)(F)F)cc3)c12)C1CCC1 [Example 1.64, 8-[4,6-bis(difluoromethyl)pyridin-2-yl]-6-{[(1R)-1-cyclobutylethyl]amino}-7-[4-(trifluoromethyl)benzyl] - 7H-purine-2-carboxylic acid]
  IC50: 22.9 nM

## C[C@@H](Nc1nc(C(=O)O)nc2nc(-c3ccc(C4OCCO4)cn3)n(Cc3ccc(C(F)(F)F)cc3)c12)C1CCC1 [Example 1.65, 6-{[(1R)-1-cyclobutylethyl]amino}-8-[5-(1,3-dioxolan-2-yl)pyridin-2-yl]-7-[4-(trifluoromethyl)benzyl]-7H-purine-2-carboxylic acid]
  IC50: 62.2 nM

## C[C@@H](Nc1nc(C(=O)O)nc2nc(-c3ccc(OC(F)F)cn3)n(Cc3ccc(C(F)(F)F)cc3)c12)C1CCC1 [Example 1.66, 6-{[(1R)-1-cyclobutylethyl]amino}-8-[5-(difluoromethoxy)pyridin-2-yl]-7-[4-(trifluoromethyl)benzyl]-7H-purine-2-carboxylic acid]
  IC50: 58.4 nM

## COc1ccnc(-c2nc3nc(C(=O)O)nc(N[C@H](C)C4CCC4)c3n2Cc2ccc(C(F)(F)F)cc2)c1 [Example 1.67, 6-{[(1R)-1-cyclobutylethyl]amino}-8-(4-methoxypyridin-2-yl)-7-[4-(trifluoromethyl)benzyl]-7H-purine-2-carboxylic acid]
  IC50: 14.2 nM

## CCCc1ccnc(-c2nc3nc(C(=O)O)nc(N[C@H](C)C4CCC4)c3n2Cc2ccc(C(F)(F)F)cc2)c1 [Example 1.68, 6-{[(1R)-1-cyclobutylethyl]amino}-8-(4-propylpyridin-2-yl)-7-[4-(trifluoromethyl)benzyl]-7H-purine-2-carboxylic acid]
  IC50: 5.62 nM
